“And” between values parts separate entries of the source, which are not always exact repeats. Equal values may be shown once.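 Where inhibition never reached the appropriate level, the endpoint shown equals the highest concentration tested. Otherwise, values were interpolated linearly from a five-concentration, 48-hour dose response in 96-well plates. Abbreviation: GI50, concentration required for 50% inhibition of growth. TGI marks complete inhibition of growth.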

Some test systems named below: CAKI-1 renal; CCRF-CEM leukemia; HCT-116 colon; OVCAR-8 ovarian; SK-MEL-5 melanoma; SNB-75 CNS; SR leukemia; UACC-62 melanoma; UO-31 renal; M19-MEL melanoma; SNB-78 CNS.
Assay in all cases: NCI anticancer screen, dose series, 48 h

For the molecule `COc1cc(C(=O)C2CC3(CCC2(O)c2cc(OC)c(OC)c(OC)c2)CC(=O)Nc2ccccc2C3=O)cc(OC)c1OC` (stereo unspecified), the TGI was above 100 µM in the experiment with CAKI-1 renal; above 100 µM in the experiment on CCRF-CEM leukemia; above 100 µM in the experiment on HCT-116 colon; above 100 µM with OVCAR-8 ovarian; 81.2 µM in the experiment with SK-MEL-5 melanoma; above 100 µM in the experiment with SNB-75 CNS. Further, the TGI with SR leukemia, with UACC-62 melanoma and in the experiment with UO-31 renal was above 100 µM in each case.
Consider `Cc1c(C2=NN=C(N=Nc3c(O)cccc3O)/C2=C/c2ccccc2)c(=O)n(-c2ccccc2)n1C`, for which the TGI with CAKI-1 renal, with CCRF-CEM leukemia, with HCT-116 colon, in the experiment with M19-MEL melanoma, in the experiment on OVCAR-8 ovarian and in the experiment with SK-MEL-5 melanoma was above 100 µM throughout. The TGI with SNB-75 CNS, in the experiment with SNB-78 CNS, in the experiment with UACC-62 melanoma and in the experiment on UO-31 renal was above 100 µM in each case.
Take `Nc1n[nH]c(CCCCCCCc2nc(N)n[nH]2)n1`: the TGI in the experiment on CCRF-CEM leukemia, in the experiment with HCT-116 colon, in the experiment with M19-MEL melanoma, in the experiment with SNB-75 CNS, with SNB-78 CNS and with SR leukemia was above 100 µM each time. Further, the TGI in the experiment with UACC-62 melanoma and with UO-31 renal was above 100 µM throughout.
As for `CC(C)=CCC/C(C)=C/CCC1(C)C=Cc2c(c3ccccc3oc2=O)O1` (stereo unspecified), the TGI with CAKI-1 renal is 33 µM; in the experiment on CCRF-CEM leukemia it was above 74 µM; in the experiment on HCT-116 colon, 28 µM; with M19-MEL melanoma it was 31.4 µM; in the experiment on OVCAR-8 ovarian, 30.3 µM; in the experiment on SK-MEL-5 melanoma it was 28.1 µM. For the same molecule, the TGI in the experiment on SNB-75 CNS was 19.8 µM; in the experiment with SNB-78 CNS, above 92.8 µM; with UACC-62 melanoma, 24 µM; in the experiment on UO-31 renal, 28.8 µM.
Regarding `CC1SC(c2ccc(Cl)cc2)N(CCc2cccs2)C1=O` (stereo unspecified), the GI50 with CAKI-1 renal was 1.15 µM; in the experiment with CCRF-CEM leukemia, 2.14 µM; in the experiment with HCT-116 colon, 1.09 µM; with OVCAR-8 ovarian, 1.93 µM; with SK-MEL-5 melanoma, 1.43 µM; with SNB-75 CNS, 2.05 µM. In the experiment on UACC-62 melanoma, the GI50 was 1.05 µM. Also, the TGI worked out at 3.42 µM in the experiment with CAKI-1 renal; 11.3 µM in the experiment with CCRF-CEM leukemia; 2.28 µM with HCT-116 colon; 4.08 µM in the experiment with OVCAR-8 ovarian; 2.75 µM in the experiment on SK-MEL-5 melanoma; 5.99 µM in the experiment with SNB-75 CNS. The molecule also came in with a TGI in the experiment with UACC-62 melanoma of 2.35 µM.
As for `O=C(O)CCCc1ccccc1`, the GI50 was above 1000 µM in the experiment with CAKI-1 renal; above 1000 µM with CCRF-CEM leukemia; above 1000 µM in the experiment on HCT-116 colon; 150 µM and 17.3 µM with OVCAR-8 ovarian; above 1000 µM in the experiment with SK-MEL-5 melanoma; 215 µM and 28.5 µM in the experiment on SR leukemia. Further, the GI50 in the experiment with UACC-62 melanoma and in the experiment on UO-31 renal was above 1000 µM each time. The TGI in the experiment on CAKI-1 renal is above 1000 µM; with CCRF-CEM leukemia, 350 µM and > 1000 µM; with HCT-116 colon, above 1000 µM; with SK-MEL-5 melanoma it was 427 µM and > 1000 µM; in the experiment on SNB-75 CNS, 327 µM and > 1000 µM; in the experiment with SR leukemia it was above 1000 µM. In addition, the TGI is 587 µM and > 1000 µM with UACC-62 melanoma; 715 µM and > 1000 µM in the experiment with UO-31 renal.
Regarding `COCCOCOC(C)(C)[C@H](CCO)O[Si](c1ccccc1)(c1ccccc1)C(C)(C)C`, the TGI is 14.1 µM in the experiment with HCT-116 colon; 26.9 µM in the experiment with M19-MEL melanoma; 23.5 µM with OVCAR-8 ovarian; 26.7 µM with SK-MEL-5 melanoma; 21.6 µM in the experiment on SNB-75 CNS; 35.1 µM in the experiment with SNB-78 CNS. Also, the TGI in the experiment on SR leukemia was determined as 16.3 µM; in the experiment on UACC-62 melanoma, 28.3 µM; with UO-31 renal, 26.9 µM.
With `O=C(O)C12CC3CC(C1)C2C=C3P(=O)(O)O` (stereo unspecified), the TGI in the experiment with CAKI-1 renal, in the experiment on CCRF-CEM leukemia, in the experiment with HCT-116 colon, in the experiment on M19-MEL melanoma, with OVCAR-8 ovarian and in the experiment on SNB-75 CNS was above 100 µM in each case. Moreover, the TGI in the experiment on UACC-62 melanoma and in the experiment with UO-31 renal was above 100 µM in each case.
As for `O=C1c2ccccc2C(=O)c2c1cc1c(c2[N+](=O)[O-])OCO1`, the GI50 is 0.556 µM with CAKI-1 renal; 0.492 µM with CCRF-CEM leukemia; 0.641 µM with HCT-116 colon; 1.68 µM with OVCAR-8 ovarian; 3.48 µM in the experiment with SK-MEL-5 melanoma; 1.44 µM in the experiment with SNB-75 CNS. Also, the figures for the GI50 in the experiment on SR leukemia and with UO-31 renal were 0.242 µM and 1.54 µM, respectively. Also, the TGI in the experiment with CAKI-1 renal is 4.51 µM; with CCRF-CEM leukemia, above 100 µM; in the experiment on HCT-116 colon, 4.44 µM; with OVCAR-8 ovarian, 10.3 µM; with SK-MEL-5 melanoma, 11.7 µM; with SNB-75 CNS it was 3.46 µM. In addition, the figures for the TGI in the experiment on SR leukemia and with UO-31 renal were 1.55 µM and 6.02 µM, respectively.
As to `c1ccc2cc3c(cc2c1)OP1(Oc2cccc4cccnc24)(O3)Oc2cc3ccccc3cc2O1`, the TGI in the experiment on CAKI-1 renal is 20.6 µM; with CCRF-CEM leukemia it was above 100 µM; in the experiment on HCT-116 colon, above 100 µM; in the experiment on M19-MEL melanoma, 38.1 µM; in the experiment with OVCAR-8 ovarian, above 57.1 µM; with SK-MEL-5 melanoma, 14.8 µM. In addition, the TGI with SNB-75 CNS was 92.1 µM; with SNB-78 CNS, above 100 µM; in the experiment on UACC-62 melanoma it was 9.39 µM; in the experiment with UO-31 renal, 20.1 µM.
As to `COc1cc(/C=C/C2=C(C#N)C(=O)OC2(C)C)ccc1O`, the TGI in the experiment on CAKI-1 renal was above 100 µM; in the experiment with CCRF-CEM leukemia, 33.1 µM; with HCT-116 colon it was above 100 µM; in the experiment with M19-MEL melanoma it was above 100 µM; with OVCAR-8 ovarian, above 100 µM; in the experiment on SK-MEL-5 melanoma it was above 100 µM. The TGI is above 100 µM with SNB-75 CNS; above 100 µM in the experiment on SNB-78 CNS; 67.3 µM in the experiment on SR leukemia; above 100 µM with UACC-62 melanoma; above 100 µM in the experiment with UO-31 renal.

The record behind these values is PubChem BioAssay (NCI).
